# Assay results reported in patent US20230085307A1, “PYRIDAZINONE COMPOUND AND HERBICIDE” (NISSAN CHEMICAL CORPORATION, priority 2019, published 2023).
# Tests used:
# windgrass [1] = experiment: Test Example 4: herbicidal effect by soil treatment (Table 19, symbol L); type: in vivo, windgrass (Apera spica-venti); details: amount of applied herbicide 320 g/ha
# Procedure, shortened: (§1)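 Three weeks of greenhouse growth at 25° C. to 30° C. followed a uniform surface spray of water-diluted emulsion at a predetermined herbicide amount. Seeds had been sown beforehand under about 1.5 cm of sterilized diluvial soil. Grading followed criteria set out in an earlier test.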
# velvetleaf [2] = experiment: Test Example 4: herbicidal effect by soil treatment (Table 19, symbol M); type: in vivo, velvetleaf (Abutilon theophrasti); details: amount of applied herbicide 320 g/ha
# Procedure, shortened: as §1
# false cleavers [3] = experiment: Test Example 4: herbicidal effect by soil treatment (Table 19, symbol Q); type: in vivo, false cleavers (Galium spurium); details: amount of applied herbicide 320 g/ha
# Procedure, shortened: as §1
# blackgrass [4] = experiment: Test Example 4: herbicidal effect by soil treatment (Table 19, symbol J); type: in vivo, blackgrass (Alopecurus myosuroides); details: amount of applied herbicide 320 g/ha
# Procedure, shortened: as §1
# green foxtail [5] = experiment: Test Example 4: herbicidal effect by soil treatment (Table 19, symbol G); type: in vivo, green foxtail (Setaria viridis); details: amount of applied herbicide 320 g/ha
# Procedure, shortened: as §1
# oval-leafed pondweed = experiment: Test Example 1: herbicidal activity, application before weed generation under submerged conditions (Table 16, symbol C); type: in vivo, oval-leafed pondweed (Monochoria vaginalis); details: 320 g/ha applied herbicide
# Procedure, shortened: (§2)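 Alluvial soil was flooded to 4 cm depth, weed seeds were sown mixed and 2.5-leaf rice seedlings were transplanted. On sowing day, the compound's emulsion, diluted in water to a set dose, was applied to the water surface. Plants grew at 25–30 °C and were scored 0–5 after three weeks.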
# barnyard grass [6] = experiment: Test Example 4: herbicidal effect by soil treatment (Table 19, symbol H); type: in vivo, barnyard grass (Echinochloa crus-galli); details: amount of applied herbicide 320 g/ha
# Procedure, shortened: as §1
# lambsquarters [7] = experiment: Test Example 5: herbicidal effect by foliage application, plastic box (Table 20, symbol O); type: in vivo, lambsquarters (Chenopodium album); details: foliage application, 320 g/ha, three weeks after application
# Procedure, shortened: (§3)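 Plants sown in sterilized diluvial soil and grown 14 days in a greenhouse at 25° C to 30° C, then sprayed on the foliage with the compound's emulsion diluted in water to a predetermined herbicide amount. Injury to weeds and crops scored three weeks after application on a visual rating scale.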
# rice flat sedge = experiment: Test Example 3: herbicidal effect by foliage application, Wagner pot (Table 18, symbol E); type: in vivo, rice flat sedge (Cyperus iria); details: 320 g/ha
# Procedure, shortened: (§4)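 Plants were sown in alluvial soil held under 0.1–0.5 cm standing water and grown 14 days in a greenhouse at 25–30 °C. An emulsifiable formulation, water-diluted to the set dose, was then sprayed onto the foliage, and effects were scored three weeks later using previously defined criteria.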
# redroot pigweed [8] = experiment: Test Example 5: herbicidal effect by foliage application, plastic box (Table 20, symbol N); type: in vivo, redroot pigweed (Amaranthus retroflexus); details: foliage application, 320 g/ha, three weeks after application
# Procedure, shortened: as §3
# velvetleaf [9] = experiment: Test Example 5: herbicidal effect by foliage application, plastic box (Table 20, symbol M); type: in vivo, velvetleaf (Abutilon theophrasti); details: foliage application, 320 g/ha, three weeks after application
# Procedure, shortened: as §3
# redroot pigweed [10] = experiment: Test Example 4: herbicidal effect by soil treatment (Table 19, symbol N); type: in vivo, redroot pigweed (Amaranthus retroflexus); details: amount of applied herbicide 320 g/ha
# Procedure, shortened: as §1
# lambsquarters [11] = experiment: Test Example 4: herbicidal effect by soil treatment (Table 19, symbol O); type: in vivo, lambsquarters (Chenopodium album); details: amount of applied herbicide 320 g/ha
# Procedure, shortened: as §1
# southern crabgrass [12] = experiment: Test Example 5: herbicidal effect by foliage application, plastic box (Table 20, symbol F); type: in vivo, southern crabgrass (Digitaria ciliaris); details: foliage application, 320 g/ha, three weeks after application
# Procedure, shortened: as §3
# late watergrass = experiment: Test Example 1: herbicidal activity, application before weed generation under submerged conditions (Table 16, symbol A); type: in vivo, late watergrass (Echinochloa oryzicola); details: 320 g/ha applied herbicide
# Procedure, shortened: as §2
# barnyard grass [13] = experiment: Test Example 5: herbicidal effect by foliage application, plastic box (Table 20, symbol H); type: in vivo, barnyard grass (Echinochloa crus-galli); details: foliage application, 320 g/ha, three weeks after application
# Procedure, shortened: as §3
# Italian ryegrass [14] = experiment: Test Example 5: herbicidal effect by foliage application, plastic box (Table 20, symbol K); type: in vivo, Italian ryegrass (Lolium multiflorum); details: foliage application, 320 g/ha, three weeks after application
# Procedure, shortened: as §3
# persian speedwell [15] = experiment: Test Example 4: herbicidal effect by soil treatment (Table 19, symbol R); type: in vivo, Persian speedwell (Veronica persica); details: amount of applied herbicide 320 g/ha
# Procedure, shortened: as §1
# chickweed [16] = experiment: Test Example 5: herbicidal effect by foliage application, plastic box (Table 20, symbol P); type: in vivo, common chickweed (Stellaria media); details: foliage application, 320 g/ha, three weeks after application
# Procedure, shortened: as §3
# wild oat [17] = experiment: Test Example 4: herbicidal effect by soil treatment (Table 19, symbol I); type: in vivo, wild oat (Avena fatua); details: amount of applied herbicide 320 g/ha
# Procedure, shortened: as §1
# barnyard grass [18] = experiment: Test Example 3: herbicidal effect by foliage application, Wagner pot (Table 18, symbol H); type: in vivo, barnyard grass (Echinochloa crus-galli); details: 320 g/ha
# Procedure, shortened: as §4
# green foxtail [19] = experiment: Test Example 5: herbicidal effect by foliage application, plastic box (Table 20, symbol G); type: in vivo, green foxtail (Setaria viridis); details: foliage application, 320 g/ha, three weeks after application
# Procedure, shortened: as §3
# false cleavers [20] = experiment: Test Example 5: herbicidal effect by foliage application, plastic box (Table 20, symbol Q); type: in vivo, false cleavers (Galium spurium); details: foliage application, 320 g/ha, three weeks after application
# Procedure, shortened: as §3
# Italian ryegrass [21] = experiment: Test Example 4: herbicidal effect by soil treatment (Table 19, symbol K); type: in vivo, Italian ryegrass (Lolium multiflorum); details: amount of applied herbicide 320 g/ha
# Procedure, shortened: as §1
# southern crabgrass [22] = experiment: Test Example 4: herbicidal effect by soil treatment (Table 19, symbol F); type: in vivo, southern crabgrass (Digitaria ciliaris); details: amount of applied herbicide 320 g/ha
# Procedure, shortened: as §1
# wild oat [23] = experiment: Test Example 5: herbicidal effect by foliage application, plastic box (Table 20, symbol I); type: in vivo, wild oat (Avena fatua); details: foliage application, 320 g/ha, three weeks after application
# Procedure, shortened: as §3
# windgrass [24] = experiment: Test Example 5: herbicidal effect by foliage application, plastic box (Table 20, symbol L); type: in vivo, windgrass (Apera spica-venti); details: foliage application, 320 g/ha, three weeks after application
# Procedure, shortened: as §3
# chickweed [25] = experiment: Test Example 4: herbicidal effect by soil treatment (Table 19, symbol P); type: in vivo, common chickweed (Stellaria media); details: amount of applied herbicide 320 g/ha
# Procedure, shortened: as §1
# Japanese bulrush = experiment: Test Example 1: herbicidal activity, application before weed generation under submerged conditions (Table 16, symbol B); type: in vivo, Japanese bulrush (Schoenoplectus juncoides); details: 320 g/ha applied herbicide
# Procedure, shortened: as §2
# blackgrass [26] = experiment: Test Example 5: herbicidal effect by foliage application, plastic box (Table 20, symbol J); type: in vivo, blackgrass (Alopecurus myosuroides); details: foliage application, 320 g/ha, three weeks after application
# Procedure, shortened: as §3
# Chinese sprangletop = experiment: Test Example 3: herbicidal effect by foliage application, Wagner pot (Table 18, symbol D); type: in vivo, chinese sprangletop (Leptochloa chinensis); details: 320 g/ha
# Procedure, shortened: as §4
# persian speedwell [27] = experiment: Test Example 5: herbicidal effect by foliage application, plastic box (Table 20, symbol R); type: in vivo, Persian speedwell (Veronica persica); details: foliage application, 320 g/ha, three weeks after application
# Procedure, shortened: as §3
structure (smiles),measurement,setting,value
COc1ccc(-c2sc3ccccc3c2-c2c(O)c(C)nn(C)c2=O)cc1F [1-049],"herbicidal effect rating, L: windgrass",windgrass [1],0 (Herbicidal rate of 5% or less (almost no effect))
same,"herbicidal effect rating, M: velvetleaf",velvetleaf [2],0 (Herbicidal rate of 5% or less (almost no effect))
same,"herbicidal effect rating, Q: false cleavers",false cleavers [3],0 (Herbicidal rate of 5% or less (almost no effect))
same,"herbicidal effect rating, J: blackgrass",blackgrass [4],0 (Herbicidal rate of 5% or less (almost no effect))
same,"herbicidal effect rating, G: green foxtail",green foxtail [5],3 (Herbicidal rate of 40% or more and less than 70%)
same,Herbicidal effect on C: oval-leafed pondweed (grade 0-5),oval-leafed pondweed,0 (Herbicidal rate of 5% or less (almost no effect))
same,"herbicidal effect rating, H: barnyard grass",barnyard grass [6],3 (Herbicidal rate of 40% or more and less than 70%)
same,"herbicidal effect grade, O: lambsquarters",lambsquarters [7],3 (Herbicidal rate of 40% or more and less than 70%)
same,"herbicidal effect on E (rice flat sedge), rating 0-5",rice flat sedge,5 (Herbicidal rate of 90% or more (almost completely withered))
same,"herbicidal effect grade, N: redroot pigweed",redroot pigweed [8],3 (Herbicidal rate of 40% or more and less than 70%)
same,"herbicidal effect grade, M: velvetleaf",velvetleaf [9],5 (Herbicidal rate of 90% or more (almost completely withered))
same,"herbicidal effect rating, N: redroot pigweed",redroot pigweed [10],4 (Herbicidal rate of 70% or more and less than 90%)
same,"herbicidal effect rating, O: lambsquarters",lambsquarters [11],3 (Herbicidal rate of 40% or more and less than 70%)
same,"herbicidal effect grade, F: southern crabgrass",southern crabgrass [12],4 (Herbicidal rate of 70% or more and less than 90%)
same,Herbicidal effect on A: late watergrass (grade 0-5),late watergrass,4 (Herbicidal rate of 70% or more and less than 90%)
same,"herbicidal effect grade, H: barnyard grass",barnyard grass [13],4 (Herbicidal rate of 70% or more and less than 90%)
same,"herbicidal effect grade, K: Italian ryegrass",Italian ryegrass [14],4 (Herbicidal rate of 70% or more and less than 90%)
same,"herbicidal effect rating, R: persian speedwell",persian speedwell [15],4 (Herbicidal rate of 70% or more and less than 90%)
same,"herbicidal effect grade, P: chickweed",chickweed [16],5 (Herbicidal rate of 90% or more (almost completely withered))
same,"herbicidal effect rating, I: wild oat",wild oat [17],0 (Herbicidal rate of 5% or less (almost no effect))
same,"herbicidal effect on H (barnyard grass), rating 0-5",barnyard grass [18],5 (Herbicidal rate of 90% or more (almost completely withered))
same,"herbicidal effect grade, G: green foxtail",green foxtail [19],4 (Herbicidal rate of 70% or more and less than 90%)
same,"herbicidal effect grade, Q: false cleavers",false cleavers [20],3 (Herbicidal rate of 40% or more and less than 70%)
same,"herbicidal effect rating, K: Italian ryegrass",Italian ryegrass [21],0 (Herbicidal rate of 5% or less (almost no effect))
same,"herbicidal effect rating, F: southern crabgrass",southern crabgrass [22],2 (Herbicidal rate of 20% or more and less than 40%)
same,"herbicidal effect grade, I: wild oat",wild oat [23],1 (Herbicidal rate of 5% or more and less than 20%)
same,"herbicidal effect grade, L: windgrass",windgrass [24],0 (Herbicidal rate of 5% or less (almost no effect))
same,"herbicidal effect rating, P: chickweed",chickweed [25],3 (Herbicidal rate of 40% or more and less than 70%)
same,Herbicidal effect on B: Japanese bulrush (grade 0-5),Japanese bulrush,1 (Herbicidal rate of 5% or more and less than 20%)
same,"herbicidal effect grade, J: blackgrass",blackgrass [26],0 (Herbicidal rate of 5% or less (almost no effect))
same,"herbicidal effect on D (Chinese sprangletop), rating 0-5",Chinese sprangletop,3 (Herbicidal rate of 40% or more and less than 70%)
same,"herbicidal effect grade, R: persian speedwell",persian speedwell [27],5 (Herbicidal rate of 90% or more (almost completely withered))
